Results reported in publication PMC9716558, “A Chiral ^19F NMR Reporter of Foldamer Conformation in Bilayers” (Journal of the American Chemical Society, 2022).
Non-standard residues stand in square brackets, D forms with d. Residues, ends and D or L forms follow the SMILES beside them. *: point of attachment. d(αMeV) = CC(C)[C@@](C)(N)C(=O)O; αMeV = CC(C)[C@](C)(N)C(=O)O; X1 = C[C@@H](N*)C(F)(F)F; Cbz = O=C(OCc1ccccc1)*; Aib = CC(C)(N)C(=O)O

Assay: Maximum solubility of foldamer in chloroform (saturated solution, 1H NMR)
Type: physicochemical
Conditions: thermodynamic, dissolved in CDCl3 until saturated; concentration by 1H NMR against a known concentration of CH2Cl2 as internal reference
Method: 9. Quantification of foldamer solubility and self-association in CHCl3
9.1 Experimental procedure (dilution)
Compounds 5d (L-αMeVal) and 5e (D-αMeVal) were dissolved in CDCl3 until saturated solutions were formed.
The initial concentration of each sample was measured using a known concentration of CH2Cl2 as an internal […]
Additional volumes of CDCl3 were added to the initial solution and the 1H NMR spectrum at each concentration […]
The binding isotherms were generated using an Excel spreadsheet macro developed by Sanderson.S7a The Solver add-in for Excel was used to calculate the best fit to the NMR data using the ‘GRG onlinear Solvin […]
The following equilibrium is used to calculate the binding isotherms:
Where Kdim is the microscopic association constant and n = 2.
The following equation is used to calculate the binding isotherm: […]
δfree is the free chemical shift of the host
δobs is the observed chemical shift […]
The concentration of the dimeric complex (H)2 is calculated iteratively by solving the following equations: […]
The concentration of free host is calculated according to the concentration difference […]
The propensity of the L-αMeVal-capped foldamer 5d and D-αMeVal-capped foldamer 5e to self-associate was investigated in chloroform by performing a dilution study,S7 which at the same time quantified the solubility of these compounds in this solvent. […]

| maximum solubility in CHCl3 / chloroform-d | Compound |
| --- | --- |
| 288 mM | CC(C)[C@](C)(NC(=O)OCc1ccccc1)C(=O)NC(C)(C)C(=O)NC(C)(C)C(=O)NC(C)(C)C(=O)NC(C)(C)C(=O)N[C@H](C)C(F)(F)F [5d, Cbz(L-MeVal)Aib4(R-TFEA)] (Cbz-[αMeV][Aib][Aib][Aib][Aib]-X1) |
| 50 mM | CC(C)[C@@](C)(NC(=O)OCc1ccccc1)C(=O)NC(C)(C)C(=O)NC(C)(C)C(=O)NC(C)(C)C(=O)NC(C)(C)C(=O)N[C@H](C)C(F)(F)F [5e, Cbz(D-MeVal)Aib4(R-TFEA)] (Cbz-[d(αMeV)][Aib][Aib][Aib][Aib]-X1) |
